# Patent US9730906B2, “α-derivatives of cis-monounsaturated fatty acids for use as medicines” (UNIVERSITAT DE LES ILLES BALEARS, priority 2008, dated 2017)
# Experiments:
# Type in all cases: cell-based, human
# SF-268 = assay: Effect of OHOD on cancer cells in culture (Table 2); design: key: + [inhibition of growth]; ++ [total halt of growth]; +++ [total removal of tumour cells]; conditions: SF-268, Glioma
# Protocol: (§1) Also, a series of α-derivatives of cis-monounsaturated fatty acids were used to investigate their effectiveness in cancer treatment. Two types of experiment were performed. Firstly, the dependency of the anti-tumour effect on concentration was investigated. To perform these experiments, human lung cancer cells (A549) were cultivated in RPMI medium, supplemented with 10% foetal bovine […], 10 mM Hepes (pH 7.4), 2 mM glutamine, 2 g/l bicarbonate, 1 g/l glucose, 100 units/ml penicillin, 0.1 mg/ml streptomycin, 0.25 μg/ml Amphotericin B, at 37° C. and in the presence of 5% CO2. In a first experimental series, these cells were treated with various concentrations (0-400 μM) of OHOD and MOD11 and the number of cells was determined by flow cytometry (FIG. 3A). […] In a second series, the anti-tumour effectiveness on A549 lung cancer cells was investigated at a single concentration (150 μM) and a time of 48 hours (FIG. 3B). […] Obviously, among the previous molecules, some lacked both modifications on the α-carbon and the double bond in cis configuration (EO, HDO, ODO) and had no therapeutic effect.
# (§2) In a second experimental series, designed to discover whether these molecules are effective in treatment of different types of tumours, the effect of OHOD at various concentrations on human cells of different types of cancer was studied. These experiments were performed as described before, except that the M220 and HT-29 cell lines were cultured in DMEM medium and the MDA-MB-231 line was incubated in Leibowitz L-15 medium supplemented with 15% foetal bovine […]. […] Where the nature of the tumour process requires, application can be topical (use on the skin of active products for the treatment of melanoma and other cutaneous abnormalities of cancerous nature), which can be considered as cosmetic treatments when attempts are made to correct aesthetic defects.
# MCF7 = assay: as above; design: key: + [inhibition of growth]; ++ [total halt of growth]; +++ [total removal of tumour cells]; conditions: MCF7, Breast
# Protocol: as §1, §2
# NCI-H460 = assay: as above; design: key: + [inhibition of growth]; ++ [total halt of growth]; +++ [total removal of tumour cells]; conditions: NCI-H460, Lung (CPNM)
# Protocol: as §1, §2
# cadherin = assay: Cadherin levels in A549 cells (antibody, confocal microscopy); conditions: 50 μM OHOD (48 h)
# Protocol: FIG. 4. Cancer cells (A549) were incubated in the absence (FIG. 4A) and presence (FIG. 4B) of OHOD ([…], 48 h). Then they were fixed, incubated in the presence of an antibody against cadherin and were observed by confocal microscopy. Treatments with 50 μM OHOD (48 h) induced an increase of 73.6±5.4% in the levels of this protein. In treatments with the fatty acids of the invention, a significant increase in cadherin levels was observed.
# Furthermore, α-derivatives of cis-monounsaturated fatty acids are capable of inducing cadherin expression. Cadherin is a cellular adhesion protein. Cells expressing cadherin are often not displaced from their tissue location as they adhere to the surrounding cells. Tumour cells that lose the capacity to synthesise this protein can migrate from the tissue in which they were generated to other body tissues where they can develop a new tumour focus by the process known as metastasis. In treatments with α-derivatives of cis-monounsaturated the fatty acids, a significant increase in cadherin levels was observed (FIG. 4). The invasive capacity of cancer cells was also investigated in a culture plate invasion model. […] Then, an area of the culture dish is scraped and the number of cells invading this region at various times, in the presence and absence of the anti-metastasis compound is counted.
# M220 = assay: Effect of OHOD on cancer cells in culture (Table 2); design: key to Anti-tumour effect: + [inhibition of growth]; ++ [total halt of growth]; +++ [total removal of tumour cells]; key to Mechanism of action: P [anti-proliferative]; D [differentiation]; A [apoptosis]; conditions: M220, Pancreas
# Protocol: as §1, §2
# U87-MG = assay: as above; design: key to Anti-tumour effect: + [inhibition of growth]; ++ [total halt of growth]; +++ [total removal of tumour cells]; key to Mechanism of action: P [anti-proliferative]; D [differentiation]; A [apoptosis]; conditions: Glioma
# Protocol: as §1, §2
# A172 = assay: as above; design: key to Anti-tumour effect: + [inhibition of growth]; ++ [total halt of growth]; +++ [total removal of tumour cells]; key to Mechanism of action: P [anti-proliferative]; D [differentiation]; A [apoptosis]; conditions: A172, Glioma
# Protocol: as §1, §2
# SH-SY5Y = assay: as above; design: key to Anti-tumour effect: + [inhibition of growth]; ++ [total halt of growth]; +++ [total removal of tumour cells]; key to Mechanism of action: P [anti-proliferative]; D [differentiation]; A [apoptosis]; conditions: Neuroblastoma
# Protocol: as §1, §2
# HT-29 = assay: as above; design: key to Anti-tumour effect: + [inhibition of growth]; ++ [total halt of growth]; +++ [total removal of tumour cells]; key to Mechanism of action: P [anti-proliferative]; D [differentiation]; A [apoptosis]; conditions: HT-29, Colon
# Protocol: as §1, §2
# HeLa = assay: as above; design: key to Anti-tumour effect: + [inhibition of growth]; ++ [total halt of growth]; +++ [total removal of tumour cells]; key to Mechanism of action: P [anti-proliferative]; D [differentiation]; A [apoptosis]; conditions: Cervix
# Protocol: as §1, §2
# HL-60 = assay: as above; design: key to Anti-tumour effect: + [inhibition of growth]; ++ [total halt of growth]; +++ [total removal of tumour cells]; conditions: HL-60, Myel-Leukaemia
# Protocol: as §1, §2
# C-6 = assay: as above; design: key to Anti-tumour effect: + [inhibition of growth]; ++ [total halt of growth]; +++ [total removal of tumour cells]; conditions: C-6, Glio-Brain
# Protocol: as §1, §2
# PC3 = assay: as above; design: key to Anti-tumour effect: + [inhibition of growth]; ++ [total halt of growth]; +++ [total removal of tumour cells]; conditions: PC3, Prostate
# Protocol: as §1, §2
smiles,measurement,setting,value
"CCCCCCCC/C=C\CCCCCCC(O)C(=O)O (stereo not drawn) [OHOD, α-Hydroxy-cis-Δ9-octadecenoic]",Anti-tumour effect,SF-268,+++
same,Anti-tumour effect,MCF7,+++
same,Anti-tumour effect,NCI-H460,+++
same,increase in the levels of cadherin,cadherin,73.6±5.4%
same,Anti-tumour effect,M220,++
same,Mechanism of action,M220,A
same,Anti-tumour effect,U87-MG,+++
same,Mechanism of action,U87-MG,D
same,Anti-tumour effect,A172,++
same,Mechanism of action,A172,D
same,Anti-tumour effect,SH-SY5Y,+
same,Mechanism of action,SH-SY5Y,P
same,Anti-tumour effect,HT-29,++
same,Mechanism of action,HT-29,A
same,Anti-tumour effect,HeLa,+++
same,Mechanism of action,HeLa,A
same,Anti-tumour effect,HL-60,+++
same,Mechanism of action,HL-60,P D A
same,Anti-tumour effect,C-6,+++
same,Mechanism of action,C-6,P D
same,Anti-tumour effect,PC3,+++
same,Mechanism of action,PC3,P A
